Laboratory results reported in PubChem BioAssay (NCI).
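Dose response: 5 concentrations. Exposure: 48 h. Format: 96-well plates. Endpoint: linear interpolation; highest concentration if not reached. The concentration for full growth arrest is given as TGI.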

How the values were obtained:
Assay in all cases: NCI anticancer screen, dose series, 48 h
A549 NSCLC = system: A549 NSCLC
CCRF-CEM leukemia = system: CCRF-CEM leukemia
COLO 205 colon = system: COLO 205 colon
DLD-1 colon = system: DLD-1 colon
HCT-116 colon = system: HCT-116 colon
HL-60(TB) leukemia = system: HL-60(TB) leukemia
HOP-18 NSCLC = system: HOP-18 NSCLC
HOP-62 NSCLC = system: HOP-62 NSCLC
HOP-92 NSCLC = system: HOP-92 NSCLC
HT29 colon = system: HT29 colon
IGROV1 ovarian = system: IGROV1 ovarian
K-562 leukemia = system: K-562 leukemia
KM12 colon = system: KM12 colon
LXFL 529 NSCLC = system: LXFL 529 NSCLC
M19-MEL melanoma = system: M19-MEL melanoma
MALME-3M melanoma = system: MALME-3M melanoma
MOLT-4 leukemia = system: MOLT-4 leukemia
NCI-H226 lung = system: NCI-H226 lung
NCI-H23 lung = system: NCI-H23 lung
NCI-H460 lung = system: NCI-H460 lung
NCI-H522 lung = system: NCI-H522 lung
OVCAR-3 ovarian = system: OVCAR-3 ovarian
OVCAR-5 ovarian = system: OVCAR-5 ovarian
RPMI-8226 leukemia = system: RPMI-8226 leukemia
SF-268 CNS = system: SF-268 CNS
SF-295 CNS = system: SF-295 CNS
SF-539 CNS = system: SF-539 CNS
SK-MEL-2 melanoma = system: SK-MEL-2 melanoma
SK-MEL-28 melanoma = system: SK-MEL-28 melanoma
SK-MEL-5 melanoma = system: SK-MEL-5 melanoma
SK-OV-3 ovarian = system: SK-OV-3 ovarian
SNB-19 CNS = system: SNB-19 CNS
SNB-75 CNS = system: SNB-75 CNS
SW-620 colon = system: SW-620 colon
TK-10 renal = system: TK-10 renal
U251 CNS = system: U251 CNS
UACC-257 melanoma = system: UACC-257 melanoma
UACC-62 melanoma = system: UACC-62 melanoma
UO-31 renal = system: UO-31 renal
786-0 renal = system: 786-0 renal
A498 renal = system: A498 renal
ACHN renal = system: ACHN renal
BT-549 breast = system: BT-549 breast
CAKI-1 renal = system: CAKI-1 renal
DU-145 prostate = system: DU-145 prostate
EKVX NSCLC = system: EKVX NSCLC
HCC-2998 colon = system: HCC-2998 colon
HCT-15 colon = system: HCT-15 colon
HS 578T breast = system: HS 578T breast
LOX IMVI melanoma = system: LOX IMVI melanoma
M14 melanoma = system: M14 melanoma
MCF7 breast = system: MCF7 breast
MDA-MB-231 breast = system: MDA-MB-231 breast
MDA-MB-435 = system: MDA-MB-435
MDA-N = system: MDA-N
NCI/ADR-RES ovarian = system: NCI/ADR-RES ovarian
OVCAR-4 ovarian = system: OVCAR-4 ovarian
OVCAR-8 ovarian = system: OVCAR-8 ovarian
PC-3 prostate = system: PC-3 prostate
RXF 393 renal = system: RXF 393 renal
SN12C renal = system: SN12C renal
SR leukemia = system: SR leukemia
T-47D breast = system: T-47D breast

**Q.** COc1cc(C2C(Cl)C(=O)N2NC(=O)c2ccc(NC(C)=O)cc2)cc(OC)c1OC (stereo not drawn) was tested. Which TGI (A549 NSCLC) did it give?
**A.** Its TGI is > 100 µM.

**Q.** What about the TGI (CCRF-CEM leukemia) of the same molecule?
**A.** The TGI was > 100 µM.

**Q.** What about the TGI (COLO 205 colon) of the same molecule?
**A.** Its TGI is > 100 µM.

**Q.** What about the TGI (DLD-1 colon) of the same molecule?
**A.** The TGI was > 100 µM.

**Q.** And the TGI (HCT-116 colon)?
**A.** The TGI was > 100 µM.

**Q.** And the TGI (HL-60(TB) leukemia)?
**A.** The TGI was > 100 µM.

**Q.** And the TGI (HOP-18 NSCLC)?
**A.** Its TGI is > 100 µM.

**Q.** And the TGI (HOP-62 NSCLC)?
**A.** Its TGI is > 100 µM.

**Q.** And the TGI (HOP-92 NSCLC)?
**A.** Its TGI is > 100 µM.

**Q.** And the TGI (HT29 colon)?
**A.** The TGI was > 100 µM.

**Q.** And the TGI (IGROV1 ovarian)?
**A.** Its TGI is > 100 µM.

**Q.** And the TGI (K-562 leukemia)?
**A.** The TGI was > 100 µM.

**Q.** And the TGI (KM12 colon)?
**A.** Its TGI is > 100 µM.

**Q.** And the TGI (LXFL 529 NSCLC)?
**A.** The TGI was > 100 µM.

**Q.** What about the TGI (M19-MEL melanoma) of the same molecule?
**A.** The TGI was > 100 µM.

**Q.** And the TGI (MALME-3M melanoma)?
**A.** The TGI was > 100 µM.

**Q.** What about the TGI (MOLT-4 leukemia) of the same molecule?
**A.** Its TGI is > 100 µM.

**Q.** And the TGI (NCI-H226 lung)?
**A.** The TGI was > 100 µM.

**Q.** And the TGI (NCI-H23 lung)?
**A.** The TGI was > 100 µM.

**Q.** What about the TGI (NCI-H460 lung) of the same molecule?
**A.** The TGI was > 100 µM.

**Q.** And the TGI (NCI-H522 lung)?
**A.** The TGI was > 100 µM.

**Q.** What about the TGI (OVCAR-3 ovarian) of the same molecule?
**A.** The TGI was > 100 µM.

**Q.** What about the TGI (OVCAR-5 ovarian) of the same molecule?
**A.** The TGI was > 100 µM.

**Q.** What about the TGI (RPMI-8226 leukemia) of the same molecule?
**A.** Its TGI is > 100 µM.

**Q.** What about the TGI (SF-268 CNS) of the same molecule?
**A.** The TGI was > 100 µM.

**Q.** What about the TGI (SF-295 CNS) of the same molecule?
**A.** The TGI was > 100 µM.

**Q.** And the TGI (SF-539 CNS)?
**A.** Its TGI is > 100 µM.

**Q.** What about the TGI (SK-MEL-2 melanoma) of the same molecule?
**A.** Its TGI is > 100 µM.

**Q.** And the TGI (SK-MEL-28 melanoma)?
**A.** The TGI was > 100 µM.

**Q.** What about the TGI (SK-MEL-5 melanoma) of the same molecule?
**A.** Its TGI is > 100 µM.

**Q.** What about the TGI (SK-OV-3 ovarian) of the same molecule?
**A.** Its TGI is > 100 µM.

**Q.** What about the TGI (SNB-19 CNS) of the same molecule?
**A.** The TGI was > 100 µM.

**Q.** What about the TGI (SNB-75 CNS) of the same molecule?
**A.** Its TGI is > 100000 nM.

**Q.** And the TGI (SW-620 colon)?
**A.** Its TGI is > 100 µM.

**Q.** What about the TGI (TK-10 renal) of the same molecule?
**A.** The TGI was > 100 µM.

**Q.** And the TGI (U251 CNS)?
**A.** Its TGI is > 100 µM.

**Q.** And the TGI (UACC-257 melanoma)?
**A.** The TGI was > 100 µM.

**Q.** What about the TGI (UACC-62 melanoma) of the same molecule?
**A.** The TGI was > 100 µM.

**Q.** What about the TGI (UO-31 renal) of the same molecule?
**A.** The TGI was > 100 µM.

**Q.** Which results are given for N#C/C(=C1C=C(Br)/C(=N\O)C=C\1Cl)c1cccc2ccccc12?
**A.** TGI (786-0 renal): 13.6 µM; TGI (A498 renal): 21.5 µM; TGI (A549 NSCLC): 26 µM; TGI (ACHN renal): 22.9 µM; TGI (BT-549 breast): 22.1 µM; TGI (CAKI-1 renal): 23.4 µM; TGI (CCRF-CEM leukemia): 13.9 µM; TGI (COLO 205 colon): 5.86 µM; TGI (DU-145 prostate): 12.6 µM; TGI (EKVX NSCLC): 23.3 µM; TGI (HCC-2998 colon): 17.7 µM; TGI (HCT-116 colon): 15.6 µM; TGI (HCT-15 colon): 25.6 µM; TGI (HL-60(TB) leukemia): 11.6 µM; TGI (HOP-62 NSCLC): 26.4 µM; TGI (HOP-92 NSCLC): 21.9 µM; TGI (HS 578T breast): 17.5 µM; TGI (HT29 colon): 6.79 µM; TGI (IGROV1 ovarian): > 100 µM; TGI (K-562 leukemia): 14.3 µM; TGI (KM12 colon): 19.4 µM; TGI (LOX IMVI melanoma): > 100 µM; TGI (M14 melanoma): 11.7 µM; TGI (MALME-3M melanoma): 21.4 µM; TGI (MCF7 breast): 28.6 µM; TGI (MDA-MB-231 breast): 16.3 µM; TGI (MDA-MB-435): 10.4 µM; TGI (MDA-N): 3.28 µM; TGI (MOLT-4 leukemia): 17.6 µM; TGI (NCI-H226 lung): 6.54 µM; TGI (NCI-H23 lung): 36.3 µM; TGI (NCI-H460 lung): 21.4 µM; TGI (NCI-H522 lung): 6.47 µM; TGI (NCI/ADR-RES ovarian): > 100 µM; TGI (OVCAR-3 ovarian): 9.39 µM; TGI (OVCAR-4 ovarian): 7.6 µM; TGI (OVCAR-5 ovarian): 18 µM; TGI (OVCAR-8 ovarian): 52.7 µM; TGI (PC-3 prostate): 10.9 µM; TGI (RPMI-8226 leukemia): 32.4 µM; TGI (RXF 393 renal): 4.44 µM; TGI (SF-268 CNS): 29.3 µM; TGI (SF-295 CNS): 12.3 µM; TGI (SF-539 CNS): 4.52 µM; TGI (SK-MEL-2 melanoma): 8.9 µM; TGI (SK-MEL-28 melanoma): 21.9 µM; TGI (SK-MEL-5 melanoma): 13.4 µM; TGI (SK-OV-3 ovarian): 20.3 µM; TGI (SN12C renal): 23.2 µM; TGI (SNB-19 CNS): 32.1 µM; TGI (SNB-75 CNS): 790 nM; TGI (SR leukemia): 13.8 µM; TGI (SW-620 colon): 25.5 µM; TGI (T-47D breast): 12.9 µM; TGI (TK-10 renal): 24.1 µM; TGI (U251 CNS): 10.7 µM; TGI (UACC-257 melanoma): 20.5 µM; TGI (UACC-62 melanoma): 15.8 µM; TGI (UO-31 renal): 24.1 µM
